Test results from patent US10627395B2, “Methods and systems for biomonitoring” (Newomics Inc., priority 2015, dated 2020).
Read-outs that look alike come from different tables or passages of the source. Values belong to the molecule of their own block, whether it stands above or below them.

What was measured:
[1] = NIST SRM 1950 human plasma; reference value provided by NIST; cited from earlier work
[2] = On-chip SPE-nanoLC-MS quantification of PFCs in human blood samples
Method: Standard stock PFCs solutions are prepared by diluting PFC standards (a list of which is shown in Table 2) in methanol in polypropylene vials. All glassware is rinsed with methanol before use. For plasma samples spiked with PFCs, frozen pooled human plasma is obtained from Innovative Research Inc. (Novi, Mich.). A 5 microliter aliquot of human plasma is thawed and mixed with 2.5 microliters of internal standards (^13C8-PFOA and ^13C8-PFOS, 50 ng/ml), 2.5 microliters of PFC standards with desired concentration, and 20 microliters of cold acetonitrile with 0.1% formic acid. After vortexing for 2 min, the mixture is sonicated for 10 min and then centrifuged at 14,000 g for 15 min. 24 microliters of the supernatant is taken out and allowed to evaporate at room temperature until the volume is reduced to around 16 microliters. All samples are stored in polypropylene vials at minus 20 degree Celsius. Standard Reference Materials (SRMs) 1950 Metabolites in Human Plasma ordered from National Institute of Standards and Technology (NIST) are stored at minus 80 degree Celsius before use. NIST SRM 1950 is thawed at room temperature and prepared by the same procedure as pooled plasma samples for validation of the chip performance.
The SPE run starts with conditioning a C18-packed SPE column by flowing 20 microliters of LC solvent B (95%/5% methanol/H2O with 2 mM ammonium acetate) at 10 microliters/min through the inlet port P1. The column is then equilibrated with 20 microliters of LC solvent A (5%/95% methanol/H2O with 2 mM ammonium acetate) at 10 microliters/min. Four microliters of the sample (containing lmicroliters of plasma) are injected into a 20-microliter sample loop and loaded onto the SPE column, followed by washing with 20 microliters of LC solvent A at 10 microliters/min. Next, the analytes are eluted from the SPE column with LC solvent B at 1 microliter/min and transferred to the trap column by mixing it with another stream of LC solvent A through the port P3 (20 microliters/min). The passive microfluidic mixer including herringbone structures enables efficient mixing of two streams and thus prevents heterogeneous streaming of organic solvent from the SPE eluent, allowing the analytes to be enriched on the trap column efficiently. Finally the HPLC gradient elution at flow rate of 600 nl/min is run to separate the analytes that are to be analyzed by nanoESI-MS. The LC solvent A consists of 5%/95% methanol/H2O with 2 mM ammonium acetate, and solvent B consists of 95%/5% methanol/H2O with 2 mM ammonium acetate. […] After that, it is increased to 95% B in 5 minutes and held at 95% B for 5 minutes. Finally it returns to the initial condition (10% B) in 2 minutes and is held for 5 minutes. The total time period for each SPE-LC-MS run is about one hour. Negative-ion-mode MS detection are performed on a hybrid quadrupole/orthogonal Q-TOF API US mass spectrometer (Waters Corp.). The capillary voltage and cone voltage are set to −2.4 kV and 25 V, respectively, and the collision energy is fixed at 10 eV. The nanoelectrospray process on emitters is visualized and monitored using a Waters nanoflow camera kit equipped with a MLH-10 Zoom lenses (Computar).
The raw LC-MS data are processed using MassLynx 4.0 software package provided with the Q-TOF API US instrument (Waters Corp.). Extracted ion chromatograms (EIC) for all target analytes are generated using their corresponding precursor/product ions with a mass window of 0.10 Da. The peak area ratio of each analyte relative to its corresponding isotope-labelled internal standard is used for quantification. For perfluorocarboxylate compounds, their product ions are used for quantitation, because their product ions are more abundant (3-5 times) than precursor ions under current MS settings. The abundance ratio between the product ion and precursor ion for each perfluorocarboxylate compound is found to be consistent over the wide concentration range (1-100 ng/ml). […]

[3] = U.S. population of 20 years and older, cited from earlier work
[4] = molecular target: human serum albumin (HSA) (Homo sapiens, UniProt P02768); settings: cited from earlier work
Chain of human serum albumin (HSA) (P02768 25-609): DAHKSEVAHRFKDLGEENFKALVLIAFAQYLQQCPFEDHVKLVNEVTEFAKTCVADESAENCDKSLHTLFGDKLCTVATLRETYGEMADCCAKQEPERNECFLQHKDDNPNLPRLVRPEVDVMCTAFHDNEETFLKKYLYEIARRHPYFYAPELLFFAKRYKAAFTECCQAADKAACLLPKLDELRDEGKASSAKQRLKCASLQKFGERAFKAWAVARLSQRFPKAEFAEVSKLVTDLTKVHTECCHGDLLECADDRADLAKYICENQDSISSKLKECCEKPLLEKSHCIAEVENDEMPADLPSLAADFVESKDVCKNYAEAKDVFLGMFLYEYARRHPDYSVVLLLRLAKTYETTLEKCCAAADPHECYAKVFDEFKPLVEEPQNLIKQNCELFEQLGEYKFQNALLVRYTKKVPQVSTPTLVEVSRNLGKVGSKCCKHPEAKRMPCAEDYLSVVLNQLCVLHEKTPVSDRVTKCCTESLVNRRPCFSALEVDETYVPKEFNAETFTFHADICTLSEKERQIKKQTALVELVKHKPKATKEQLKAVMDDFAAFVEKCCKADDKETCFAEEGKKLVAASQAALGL

[5] = NIST SRM 1950 human plasma, SPE-LC-MS chip
[6] = pooled human plasma, SPE-LC-MS chip

Structure (SMILES): O=C(O)C(F)(F)C(F)(F)C(F)(F)C(F)(F)C(F)(F)C(F)(F)C(F)(F)C(F)(F)C(F)(F)F [PFDeA, Perfluorodecanoic acid]
Concentration of PFCs, NIST SRM 1950, Reference Value [1]: 0.322 ± 0.007 ng/mL | Concentration of PFCs, NIST SRM 1950, Measured Value [2, 5]: 0.364 ± 0.033 ng/mL | Concentration of PFCs, Pooled plasma, Measured Value [2, 6]: 0.279 ng/mL | Individual serum, National Exposure Report by CDC, geometric mean (95% confidence interval) ([3]; survey year 2009-2010): 0.289 (0.265-0.314) ng/ml | Individual serum, National Exposure Report by CDC, geometric mean (95% confidence interval) ([3]; survey year 2011-2012): 0.209(0.189-0.230) ng/ml

Structure (SMILES): O=S(=O)(O)C(F)(F)C(F)(F)C(F)(F)C(F)(F)C(F)(F)C(F)(F)F [PFHxS, Perfluorohexane sulfonic acid]
Concentration of PFCs, NIST SRM 1950, Reference Value [1]: 3.25 ± 0.080 ng/mL | Concentration of PFCs, NIST SRM 1950, Measured Value [2, 5]: 3.53 ± 0.38 ng/mL | Concentration of PFCs, Pooled plasma, Measured Value [2, 6]: 1.18 ng/mL | Individual serum, National Exposure Report by CDC, geometric mean (95% confidence interval) ([3]; survey year 2009-2010): 1.61 (1.45-1.79) ng/ml | Individual serum, National Exposure Report by CDC, geometric mean (95% confidence interval) ([3]; survey year 2011-2012): 1.28 (1.14-1.43) ng/ml

Structure (SMILES): O=C(O)C(F)(F)C(F)(F)C(F)(F)C(F)(F)C(F)(F)C(F)(F)C(F)(F)F [PFOA, Perfluorooctanoic acid]
number of PFOA binding sites to human serum albumin (HSA) [4]: over 6 | PFOA bound to HSA in human blood ([4]; human blood): more than 90%

Structure (SMILES): O=S(=O)(O)C(F)(F)C(F)(F)C(F)(F)C(F)(F)C(F)(F)C(F)(F)C(F)(F)C(F)(F)F [PFOS, Perfluorooctane sulfonic acid]
Concentration of PFCs, NIST SRM 1950, Reference Value [1]: 10.6 ± 0.13 ng/mL | Concentration of PFCs, NIST SRM 1950, Measured Value [2, 5]: 11.1 ± 0.36 ng/mL | Concentration of PFCs, Pooled plasma, Measured Value [2, 6]: 4.76 ng/mL | Individual serum, National Exposure Report by CDC, geometric mean (95% confidence interval) ([3]; survey year 2009-2010): 9.72 (8.45-11.2) ng/ml | Individual serum, National Exposure Report by CDC, geometric mean (95% confidence interval) ([3]; survey year 2011-2012): 6.71 (6.24-7.20) ng/ml

Concentration of PFCs, NIST SRM 1950, Measured Value ([2]; human): 0.172 ± 0.078 ng/mL | Concentration of PFCs, Pooled plasma, Measured Value ([2]; human): 0.094 ng/mL
Structure (SMILES): NS(=O)(=O)C(F)(F)C(F)(F)C(F)(F)C(F)(F)C(F)(F)C(F)(F)C(F)(F)C(F)(F)F [PFOSA, Perfluorooctane sulfonamide]
Individual serum, National Exposure Report by CDC, geometric mean (95% confidence interval) ([3]; survey year 2009-2010): <0.1; <0.1 ng/ml | Individual serum, National Exposure Report by CDC, geometric mean (95% confidence interval) ([3]; survey year 2011-2012): <0.1; <0.1 ng/ml
